Reference: patent US20100160264A1, “CRYSTALLINE SOLID FORMS” (priority 2007, published 2010)
≈ marks a conversion by molar mass, not a printed value.

Columns and labels:
[1] = Stability after storing different crystalline forms of Tigecycline at 80° C. for 7 days (4-Epi-Tigecycline and total impurities); format: physicochemical; conditions: for Stability in words (total impurities and 4-Epi-Tigecycline content): 7 days at 80° C.; for 4-Epi-Tigecycline 7 days at 80° C. / Total impurities 7 days at 80° C.: after storing 7 days at 80° C., in % (unit assumed); for 4-Epi-Tigecycline ambient conditions / Total impurities ambient conditions: before storage, depends on purity of the starting material
Source text: A suitable crystalline form of Tigecycline for formulating an anti-infective medicament first of all is required to be thermodynamic stable, in order to avoid formation of degradation products.

[2] = Water content and hygroscopicity: open storage for 24 hours at 80% relative humidity; format: physicochemical; conditions: for water content 1 day at 80% rH: open storage 1 day at 80% rH; for water uptake 1 day at 80% rH / Hygroscopicity in words: open storage 24 hours at 80% relative humidity
Source text: Furthermore suitable crystalline forms of Tigecycline should be low hygroscopic, as water uptake may cause the formation of undesired byproducts like e.g. 4-Epi-Tigecycline.

[3] = 30 min
Description: The water solubility determination of the different crystalline forms of Tigecycline was performed on a Perkin Elmer® Lambda 35 UV/VIS spectrometer. The software used was Perkin Elmer® UV WlnLab-5.1.
200 mg of Tigecycline were stirred with 1 ml distilled water at room temperature for 30 minutes. The suspension was filtered through a 0.45 μm filter and 100 μl of the solution were transferred into a 1 L volumetric flask. After filling up to the check mark with distilled water the solution was measured at 347 nm.

[4] = cited from earlier work

CN(C)c1cc(NC(=O)CNC(C)(C)C)c(O)c2c1C[C@H]1C[C@H]3[C@H](N(C)C)C(O)=C(C(N)=O)C(=O)[C@@]3(O)C(O)=C1C2=O [Form I, Tigecycline]
Stability in words (total impurities and 4-Epi-Tigecycline content) [1]: tremendous increase
4-Epi-Tigecycline 7 days at 80° C. ([1]; listed as I): 2.15
Total impurities 7 days at 80° C. ([1]; listed as I): 11.20
4-Epi-Tigecycline ambient conditions ([1]; listed as I): 0.36%
Total impurities ambient conditions ([1]; listed as I): 0.75%
water content ambient conditions ([2]; listed as I): 2.01%
water content 1 day at 80% rH ([2]; listed as I): 5.01%
water uptake 1 day at 80% rH ([2]; listed as I): 3.00%
Solubility, Concentration [3]: 185 mg/mL (≈ 316 mM)

CN(C)c1cc(NC(=O)CNC(C)(C)C)c(O)c2c1C[C@H]1C[C@H]3[C@H](N(C)C)C(O)=C(C(N)=O)C(=O)[C@@]3(O)C(O)=C1C2=O [Form II, Tigecycline]
Stability in words (total impurities and 4-Epi-Tigecycline content) ([1]; listed as form II): tremendous increase
4-Epi-Tigecycline 7 days at 80° C. ([1]; listed as II): 10.83
Total impurities 7 days at 80° C. ([1]; listed as II): 18.44
4-Epi-Tigecycline ambient conditions ([1]; listed as II): 1.04%
Total impurities ambient conditions ([1]; listed as II): 1.6%
water content ambient conditions ([2]; listed as II): 2.93%
water content 1 day at 80% rH ([2]; listed as II): 10.04%
water uptake 1 day at 80% rH ([2]; listed as II): 7.11%
Solubility, Concentration [3]: 177 mg/mL (≈ 302 mM)

CN(C)c1cc(NC(=O)CNC(C)(C)C)c(O)c2c1C[C@H]1C[C@H]3[C@H](N(C)C)C(O)=C(C(N)=O)C(=O)[C@@]3(O)C(O)=C1C2=O [Form III, Tigecycline]
4-Epi-Tigecycline 7 days at 80° C. ([1]; listed as III): 2.18
Total impurities 7 days at 80° C. ([1]; listed as III): 4.46
4-Epi-Tigecycline ambient conditions ([1]; listed as III): 0.16%
Total impurities ambient conditions ([1]; listed as III): 0.16%
water content ambient conditions ([2]; listed as III): 0.69%
water content 1 day at 80% rH ([2]; listed as III): 8.01%
water uptake 1 day at 80% rH [2]: 7.32%
water uptake 1 day at 80% rH ([2]; listed as III): 7.32%
Solubility, Concentration [3]: 174 mg/mL (≈ 297 mM)

CN(C)c1cc(NC(=O)CNC(C)(C)C)c(O)c2c1C[C@H]1C[C@H]3[C@H](N(C)C)C(O)=C(C(N)=O)C(=O)[C@@]3(O)C(O)=C1C2=O [Form IV, Tigecycline]
4-Epi-Tigecycline 7 days at 80° C. ([1]; listed as IV): 0.38
Total impurities 7 days at 80° C. ([1]; listed as IV): 0.87
4-Epi-Tigecycline ambient conditions ([1]; listed as IV): 0.23%
Total impurities ambient conditions ([1]; listed as IV): 0.4%
water content ambient conditions ([2]; listed as IV): 2.90%
water content 1 day at 80% rH ([2]; listed as IV): 3.33%
water uptake 1 day at 80% rH ([2]; listed as IV): 0.43%
Solubility, Concentration [3]: 183 mg/mL (≈ 312 mM)

CN(C)c1cc(NC(=O)CNC(C)(C)C)c(O)c2c1C[C@H]1C[C@H]3[C@H](N(C)C)C(O)=C(C(N)=O)C(=O)[C@@]3(O)C(O)=C1C2=O [Form V, Tigecycline]
4-Epi-Tigecycline 7 days at 80° C. ([1]; listed as V): 0.18
Total impurities 7 days at 80° C. ([1]; listed as V): 0.37
4-Epi-Tigecycline ambient conditions ([1]; listed as V): < 0.05%
Total impurities ambient conditions ([1]; listed as V): 0.22%
water content ambient conditions ([2]; listed as V): 0.19%
water content 1 day at 80% rH ([2]; listed as V): 1.88%
water uptake 1 day at 80% rH ([2]; listed as V): 1.69%
Solubility, Concentration [3]: 134 mg/mL (≈ 229 mM)

CN(C)c1cc(NC(=O)CNC(C)(C)C)c(O)c2c1C[C@H]1C[C@H]3[C@H](N(C)C)C(O)=C(C(N)=O)C(=O)[C@@]3(O)C(O)=C1C2=O [Form VI, Tigecycline]
Stability in words (total impurities and 4-Epi-Tigecycline content) ([1]; listed as VI): adequate stability data
4-Epi-Tigecycline 7 days at 80° C. ([1]; listed as VI): 0.38
Total impurities 7 days at 80° C. ([1]; listed as VI): 0.91
4-Epi-Tigecycline ambient conditions ([1]; listed as VI): 0.17%
Total impurities ambient conditions ([1]; listed as VI): 0.24%
water content ambient conditions ([2]; listed as VI): 0.18%
water content 1 day at 80% rH ([2]; listed as VI): 0.25%
Hygroscopicity in words [2]: low hygroscopicity
water uptake 1 day at 80% rH ([2]; listed as VI): 0.07%
Solubility, Concentration [3]: 76 mg/mL (≈ 130 mM)

CN(C)c1cc(NC(=O)CNC(C)(C)C)c(O)c2c1C[C@H]1C[C@H]3[C@H](N(C)C)C(O)=C(C(N)=O)C(=O)[C@@]3(O)C(O)=C1C2=O [Form VIII, Tigecycline]
Stability in words (total impurities and 4-Epi-Tigecycline content) ([1]; listed as VIII): adequate stability data
Stability in words (total impurities and 4-Epi-Tigecycline content) ([1]; listed as form VIII): adequate stability data
4-Epi-Tigecycline 7 days at 80° C. ([1]; listed as VIII): 0.70
Total impurities 7 days at 80° C. ([1]; listed as VIII): 2.13
4-Epi-Tigecycline ambient conditions ([1]; listed as VIII): 0.15%
Total impurities ambient conditions ([1]; listed as VIII): 0.43%
water content ambient conditions ([2]; listed as VIII): 0.10%
water content 1 day at 80% rH ([2]; listed as VIII): 0.21%
water uptake 1 day at 80% rH ([2]; listed as VIII): 0.11%
Hygroscopicity in words ([2]; listed as form VIII): no water uptake at all
water uptake 1 day at 80% rH ([2]; listed as form VIII): 0.11%
Solubility, Concentration [3]: 141 mg/mL (≈ 241 mM)

CN(C)c1cc(NC(=O)CNC(C)(C)C)c(O)c2c1C[C@H]1C[C@H]3[C@H](N(C)C)C(O)=C(C(N)=O)C(=O)[C@@]3(O)C(O)=C1C2=O [Tigecycline, (4S,4aS,5aR,12aS)-4,7-Bis(dimethylamino)-9-[[2-[(1,1-dimethylethyl)amino]acetyl]amino]-1,4,4a,5,5a,6,11,12a-octahydro-3,10,12,12a-tetrahydroxy-1,11-dioxo-2-naphthacene carboxamide]
oral bioavailability [4]: very limited
